This note sets out measurements from patent publication US20110125050A1, “Multiple-Electrode and Metal-Coated Probes” (THE TRUSTEES OF THE UNIVERSITY OF PENNSYLVANIA, priority 2004, published 2011).

The subject of one assay is GABAA receptor. As to the kind of experiment: CNP-recorded membrane potential of HT-22 cells during pharmacological stimulation (GABA, bicuculline). Particulars: for hyperpolarization from the RMP: 12 mM GABA in bath; for time for cell to return to its RMP: constant HBSS perfusion. In kind it is cell-based, mouse.
The test system of a further assay is HT-22 cells. The assay can be described thus: CNP-recorded membrane potential of HT-22 cells during ionic (K+) enrichment. The settings on record: for depolarization: KCl added to bath. It counts as cell-based, mouse. The source says: Because the cell membrane is highly permeable to potassium ions (K^+), an increase or decrease in extracellular K+ concentration will, respectively, cause a resting cell to depolarize (membrane potential becoming more positive) or hyperpolarize (membrane potential becoming more negative). Utilizing CNPs, variations in membrane potential were monitored over tens of minutes. FIG. 8A is a recording of membrane potential from an HT-22 cell during perfusion intervals with normal HBSS and K+-enriched HBSS (additional 5 mM K^+). […] After approximately 2 min at higher extracellular K^+, the cell was perfused with normal HBSS and the cell slowly returned to its RMP.
Next, a CNP was used to measure changes in membrane potential during repetitive extracellular administration of KCl [FIG. 8B]. After penetrating the cell, as indicated by the arrow in FIG. 8B, the CNP measured a stable RMP under normal HBSS perfusion (Emp=−68 mV). […] Under constant perfusion in normal HBSS, the membrane potential returned to its original value after […]. The results were reproducible with high fidelity.
FIG. 8C is a representation of potential variations as a function of time during the administration of HBSS and the varied K+-enrichment of HBSS (additional 5 and 15 mM K^+). […] As normal HBSS perfusion brought the bath back to its initial K+ concentration, the cell returned to its RMP in ˜90 seconds.
Lastly, CNPs were used to electrically record a cell response to sequential pharmacological stimulation and ionic enrichment. FIG. 10B represents the opposing membrane responses to such stimuli over time. […] Once the GABA was washed away under constant HBSS perfision, the cell returned to its RMP in 60 sec. […] As excess KCl was washed away under constant HBSS perfusion, the cell returned again to its RMP after 60 sec.
Cell Culture and Preparation. The mouse hippocampal cell line HT-22 was kindly provided by Dr. David Schubert (The Salk Institute, San Diego, Calif.). Cells were grown in Dulbecco's Modified Eagle Medium (DMEM, high glucose) supplemented with 10% fetal bovine serum (FBS) and 1% antibiotics. The cells were plated on 12 mm cover slips 48 hrs prior to the electrophysiology measurements. The cells on the cover slips were incubated in HBSS (with calcium and magnesium) at room temperature for 10 min prior to measurements. The cover slips were subsequently placed in an open diamond perfision bath (Warner Instruments Corp., RC-22C) positioned on an upright microscope (Nikon eclipse E600FN, 40× water-immersion lens, Burleigh Gibraltar fixed-stage platform) located atop a vibration-isolation table. Cells were routinely perfised with HBSS at a flow rate of 1.0 mllmin.
Electrophysiology. Membrane potential measurements were recorded with an Axon AxoClamp-2A amplifier equipped with a headstage for high resistance electrodes (Axon HS2-XO.OlMU) and Digidata 1322A digitizer (Axon Instruments/Molecular Devices, Sunnyvale, Calif.). Experimental protocols were controlled and data acquired by a personal computer using the Clampex 8.2 software (Axon Instruments). CNPs were inserted into a standard electrode holder until the metal wire of the holder came in contact with the inner carbon film of the CNP. A slight positive pressure was applied through the holder's perfixion port to keep external solution from filling the hollow CNP by capillarity. A micromanipulator (Narishige MHW-3) was used to manipulate and position the CNP electrodes during the electrophysiology measurements. All the electrical measurements were carried out versus an AgIAgCl reference electrode submerged in HBSS in discontinuous current clamp @CC) mode, at zero current, with no capacitance compensation. The CNP potential was nulled (+I-2 mV) with the amplifier offset potential during immersion in HBSS before all electrical measurements. Recorded electrical measurements were not adjusted to compensate for differences in extracellular and intracellular junction potentials.

Description for GABAA receptor: Recording Cellular Responses to Pharmacological Stimuli. In addition to monitoring predictable cell membrane potential changes caused by ionic enrichment, CNPs were utilized to electrically record cell responses to pharmacological stimuli. Y-aminobutyric acid (GABA), a principal inhibitory neurotransmitter in the mammalian central nervous system which acts as an agonist for the membrane-bound GABAA receptor, was administered. When GABA binds to the GABAA receptor, the cell hyperpolarizes as a result of Cl− ion influx due to the opening of the ligand-gated Cl− ion channel. However, the hyperpolarization can be blocked by perfusing cells with bicuculline (BIC), a competitive antagonist for the GABAA receptor which binds to the GABAA receptor and prevents it from opening even in the presence of GABA.
FIG. 10A illustrates how an HT-22 cell responded when GABA was added to the cell bath (12 mM GABA in bath, arrow).
Cell Culture and Preparation. […] Cells were grown in Dulbecco's Modified Eagle Medium (DMEM, high glucose) supplemented with 10% fetal bovine serum (FBS) and 1% antibiotics. The cells were plated on 12 mm cover slips 48 hrs prior to the electrophysiology measurements. The cells on the cover slips were incubated in HBSS (with calcium and magnesium) at room temperature for 10 min prior to measurements. The cover slips were subsequently placed in an open diamond perfision bath (Warner Instruments Corp., RC-22C) positioned on an upright microscope (Nikon eclipse E600FN, 40× water-immersion lens, Burleigh Gibraltar fixed-stage platform) located atop a vibration-isolation table. Cells were routinely perfised with HBSS at a flow rate of 1.0 mllmin.
Electrophysiology. Membrane potential measurements were recorded with an Axon AxoClamp-2A amplifier equipped with a headstage for high resistance electrodes (Axon HS2-XO.OlMU) and Digidata 1322A digitizer (Axon Instruments/Molecular Devices, Sunnyvale, Calif.). Experimental protocols were controlled and data acquired by a personal computer using the Clampex 8.2 software (Axon Instruments). CNPs were inserted into a standard electrode holder until the metal wire of the holder came in contact with the inner carbon film of the CNP. A slight positive pressure was applied through the holder's perfixion port to keep external solution from filling the hollow CNP by capillarity. A micromanipulator (Narishige MHW-3) was used to manipulate and position the CNP electrodes during the electrophysiology measurements. […] Recorded electrical measurements were not adjusted to compensate for differences in extracellular and intracellular junction potentials.

As for `NCCCC(=O)O` [GABA, Y-aminobutyric acid], the “hyperpolarization from the RMP” value worked out at 12 mV with GABAA receptor (RMP -57 mV, FIG. 10B) and 10 mV in the assay on GABAA receptor (normal HBSS perfusion, RMP -53 mV, FIG. 10A). The “time for cell to return to its RMP” value in the assay on GABAA receptor (after 12 mM GABA washed away, FIG. 10B) was 60 s; in the assay with GABAA receptor (after 12 mM GABA, FIG. 10A) it was 30 s.

As to `[Cl-].[K+]` [KCl, Potassium chloride], the depolarization was 10 mV with HT-22 cells (additional 5 mM K+, RMP -57 mV, FIG. 8C); 30 mV with HT-22 cells (additional 15 mM K+, RMP -57 mV, FIG. 8C); 25 mV with HT-22 cells (additional 15 mM K+, after GABA washout, RMP -57 mV, FIG. 10B); 40 mV in the assay with HT-22 cells (additional 25 mM K+, RMP -68 mV, FIG. 8B). For the same molecule, the “time for cell to return to its RMP” value is about 90 s with HT-22 cells (after additional 5 mM K+, normal HBSS perfusion, FIG. 8C); about 90 s with HT-22 cells (after additional 15 mM K+, FIG. 8C); 60 s with HT-22 cells (after additional 15 mM K+, constant HBSS perfusion, FIG. 10B).
